Laboratory results taken from patent publication US20060276393A1, “Novel compositions for preventing and treating neurodegenerative and blood coagulation disorders” (Sirtris Pharmaceuticals, Inc., priority 2005, published 2006).
Like-named read-outs stand apart in the source and are kept apart here.

What was measured:
Human 293 = test: Survival of 293 cells; details: 50 micromolar
Source text: The number of live cells each time point was counted using a Coulter counter.

D. melanogaster = D. melanogaster lifespan; assay type: in vivo
Experimental: Females (a) and males (b) with loss-of-function genotype dSir2^4.5/dSir2^5.26. Females (c) and males (d) with strong hypomorphic genotype dSir2^17/dSir2^KG00871.
Survival assays were conducted independently with adult D. melanogaster in two laboratories. In the first laboratory, all trials used an yw marked wild-type strain. Larvae were reared on standard cornmeal-sugar-yeast (CSY) agar diet (cornmeal 5%, sucrose 10.5%, SAF yeast 2%, and agar 0.7%). Newly eclosed adults were placed in 1 L demography cages with approximately 75 males and 75 females. Three to four replicate 1 L demography cages were used for each treatment group in each trial. Every two days, dead flies were removed and scored, and food vials were replenished. Food vials contained cornmeal-sugar-yeast diet with SAF yeast as either 2% or 3% by weight. Test compounds in 100 μl of EtOH (or blank EtOH in controls) were mixed into melted aliquots of the adult food media to make a final concentration of 0, 10 or 100 μM. Fresh stock solutions and adult media were prepared weekly. In the second laboratory, lifespan trials were conducted with the wild type strain Canton-S, dSir2^4.5 and dSir2^5.26 (S. Smolik, University of Oregon), dSir2^17 (S. Astrom, Stockholm University, Sweden), and dSir2^KG00871 (Drosophila Stock Center, Bloomington, Ind.). Larvae for all tests were reared on standard cornmeal-sugar-yeast diet. Newly eclosed adults were incubated in plastic shell vials containing 5 ml of 15% sugar-yeast diet (15% SY) or 5% sugar-yeast (5% SY) diet (15% SY: 15% yeast, 15% sucrose, 2% agar; 5% SY: 5% yeast, 5% sucrose, 2% agar as per Ref. ^20). In all trials, ˜20 males with ˜20 females were placed into each of 10 vials/treatment group. Every two days, flies were passed into new vials and dead flies were counted. […] Final compound concentrations were 0, 10, 100 or 200 μM. Fresh stock solution and adult media was prepared weekly.

[1] = test system: Experimental autoimmune encephalomyelitis (EAE) in SJL/J mice; details: for Mean total EAE score: 30 days from day 11, vehicle 72.38; for Mean EAE Score - Last 10 Days: vehicle 23.00
S. cerevisiae = test: Yeast replicative lifespan; assay type: cell-based; details: for Average lifespan, growth on resveratrol: wild type untreated 21.0
recombinant SIR-2.1 = biological target: T1, recombinant SIR-2.1 (Caenorhabditis elegans, UniProt Q21921)
T1 sequence (Q21921 1-607): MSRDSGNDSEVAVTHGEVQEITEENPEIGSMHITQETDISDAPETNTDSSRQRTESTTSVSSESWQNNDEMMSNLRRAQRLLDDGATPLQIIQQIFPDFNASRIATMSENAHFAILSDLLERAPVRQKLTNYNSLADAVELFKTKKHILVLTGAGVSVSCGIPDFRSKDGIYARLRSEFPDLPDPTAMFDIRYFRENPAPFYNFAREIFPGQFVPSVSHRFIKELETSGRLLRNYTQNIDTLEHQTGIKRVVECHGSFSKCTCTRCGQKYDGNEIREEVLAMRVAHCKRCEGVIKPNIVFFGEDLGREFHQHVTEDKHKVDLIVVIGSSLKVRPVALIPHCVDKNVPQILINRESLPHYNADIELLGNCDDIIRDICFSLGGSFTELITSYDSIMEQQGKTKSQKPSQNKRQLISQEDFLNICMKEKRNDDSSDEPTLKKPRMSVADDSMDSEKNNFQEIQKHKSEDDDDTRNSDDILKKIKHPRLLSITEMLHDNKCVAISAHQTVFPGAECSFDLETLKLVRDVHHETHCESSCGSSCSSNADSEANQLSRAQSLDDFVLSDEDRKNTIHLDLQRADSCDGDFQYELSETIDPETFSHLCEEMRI
Experimental: STACs were dissolved at 10 mM in dimethylsulfoxide (DMSO) the day of the assay. […] Drosophila S2 cells were grown in Schneider media with fetal calf serum at 23-28° C., seeded at 9×10^4 cells/well, grown overnight and then exposed to 1 μM TSA, 500 μM polyphenols, and 200 μM FdL for 2 hr. Deacetylation of FdL with lysate from whole cells was determined as described^4. Unless otherwise indicated all initial rate measurements were means of three or more replicates obtained with single incubation times, at which point 5% or less of the substrate initially present was deacetylated.

Oc1ccc(/C=C/c2cc(O)cc(O)c2)cc1 [Resveratrol, 3,5,4′-Trihydroxy-trans-stilbene]
Survival of 293 cells (Human 293; 0 h): 100%
Survival of 293 cells (Human 293; 48 h): 5%
Survival of 293 cells (Human 293; 96 h): 0%
increased lifespan (maximum) (D. melanogaster; Canton-S/dSir2^KG0087): up to 17%
lifespan in flies lacking or severely decreased in dSir2 (D. melanogaster; dSir2^4.5/dSir2^5.26 or dSir2^17/dSir2^KG00871, 100 μM): failed to extend lifespan
longevity in flies homozygous for a hypomorphic dSir2 allele (D. melanogaster; dSir2^KG0087/dSir2^KG0087): a small but statistically significant amount
longevity on restricted diet (D. melanogaster; restricted diet): neither resveratrol nor fisetin further increased longevity
lifespan extended (maximum) (D. melanogaster; wild type Canton-S and yw, males and females, normal diet): up to 29%
clinical course ([1]; high dose resveratrol 400 mg/kg/day): not different from controls
peak and overall disease level ([1]; low dose resveratrol 200 mg/kg/day): slightly higher than controls
Mean total EAE score ([1]; resveratrol 200 mg/kg/day IP): 94.00
Mean EAE Score - Last 10 Days ([1]; resveratrol 200 mg/kg/day IP): 28.63
Mean total EAE score ([1]; resveratrol 400 mg/kg/day IP): 73.00
Mean EAE Score - Last 10 Days ([1]; resveratrol 400 mg/kg/day IP): 21.88
increase of average lifespan (S. cerevisiae; 10 μM): 70%
maximum lifespan (in words) (S. cerevisiae; 10 μM): significantly increased maximum lifespan
Average lifespan (S. cerevisiae; 10 μM compound, 2% glucose medium, wild type untreated 22.9): 36.8 generations
Average lifespan, growth on resveratrol (S. cerevisiae; 10 μM): 35.7 generations
Average lifespan, growth on resveratrol (S. cerevisiae; 100 μM): 29.4 generations
Average lifespan, growth on resveratrol (S. cerevisiae; 500 μM): 29.3 generations
Average lifespan, glucose-restricted+resveratrol (CR+R) (S. cerevisiae; glucose restriction): 39.9 generations
Average lifespan, pnc1Δ+resveratrol (S. cerevisiae; pnc1Δ untreated 19.2): 33.1 generations
Average lifespan, sir2Δ+resveratrol (S. cerevisiae; sir2Δ untreated 9.9): 10.0 generations
Average lifespan, wild type+resveratrol (wt+R) (S. cerevisiae; wild type untreated 19.0): 37.8 generations
Km of SIR-2.1 for the co-substrate NAD+ (recombinant SIR-2.1; 100 μM resveratrol, 10 μM Fluor de Lys): lowered the Km of SIR-2.1
stimulated deacetylation (maximum) (recombinant SIR-2.1; dose-dependent, Fluor de Lys): up to 2.5 fold
